US20250134906A1 (Woolsey Pharmaceuticals, Inc., priority 2022, published 2025)
Structures can show the parent of a compound that is named as a salt.

Columns and labels:
[1] = Solubility and stability of unbuffered aqueous fasudil solutions stored at 60° C. for 42 days; type: physicochemical; details: 16-20 mg/ml
Method: Samples were stored at 60° C. for 42 days.

[2] = Stability of aqueous fasudil in 0.05M citrate buffer with or without EDTA, 60° C. for 36 days; type: physicochemical
Method: Samples were stored at 60° C. for 36 days.

O=S(=O)(c1cccc2cnccc12)N1CCCNCC1 [Fasudil, hexahydro-1-(5-isoquinolinesulfonyl)-1H-1,4-diazepine monohydrochloride hemihydrate]
changes in fasudil concentration or pH [1]: stable in the range of pH 4 to pH 6 | changes in pH or fasudil concentration [2]: compatible with EDTA in citrate buffer
